Source: patent US12391650B2, “Catecholamine prodrugs for use in the treatment of Parkinson's disease” (H. Lundbeck A/S, priority 2019, dated 2025)
Like-named read-outs stand apart in the source and are kept apart here.

Columns and labels:
[1] = rats; cited from earlier work
[2] = PK experiments in rats after oral dosing, plasma compound (I); format: in vivo, Han Wistar rats; settings: Wistar rats; for Observed metabolite, in vivo PK study after oral dosing (rats): plasma
Procedure: Plasma was placed on water-ice following collection. Final storage at approximately −70° C.
Mobile phase B: Acetonitrile. […] Flow rate 0.5 mL/min.
The rats had unrestricted access to the diet.
Mobile phase B: Acetonitrile+0.2% formic acid. […] Flow rate 0.3 mL/min.
Dosing and blood sampling for compound (Ic), compound (2), compound (3), compound (8), and compound (9): Han Wistar rats were supplied by Envigo, UK. […] The rats received a standard laboratory diet Teklad 2014C. The rats had unrestricted access to the diet. […] Rats were given 494 μg/kg (Ic), 392 μg/kg compound (8), 426 μg/kg compound (9), 359 μg/kg compound (3) and 551 μg/kg compound (2).

human 5-HT2B receptor = biological target: T1, human 5-HT2B receptor (Homo sapiens, UniProt P41595); test: 5-HT2B agonist activity assay (IP1 production, HTRF, transfected CHO cells); format: cell-based
T1 construct: host or cells: CHO cells
Procedure: Evaluation of the agonist activity of compounds (I), (Ia), (Ib), (Ic), compound (2), compound (3), compound (6), compound (8), and compound (9) at the human 5-HT2B receptor was performed by Eurofins/Cerep (France) measuring the compound effects on inositol monophosphate (IP1) production using the HTRF detection method. Briefly, the human 5-HT2B receptor was expressed in transfected CHO cells. The cells were suspended in a buffer containing 10 mM Hepes/NaOH (pH 7.4), 4.2 mM KCl, 146 mM NaCl, 1 mM CaCl2, 0.5 mM MgCl2, 5.5 mM glucose and 50 mM LiCl, then distributed in microplates at a density of 4100 cells/well and incubated for 30 minutes at 37° C. in the presence of buffer (basal control), test compound or reference agonist. For stimulated control measurement, separate assay wells contained 1 μM 5-HT. Following incubation, the cells were lysed and the fluorescence acceptor (fluorophen D2-labeled IP1) and fluorescence donor (anti-IP1 antibody labeled with europium cryptate) were added. After 60 minutes at room temperature, the fluorescence transfer was measured at lambda(Ex) 337 nm and lambda(Em) 620 and 665 nm using a microplate reader (Rubystar, BMG). The IP1 concentration was determined by dividing the signal measured at 665 nm by that measured at 620 nm (ratio). The results were expressed as a percent of the control response to 1 μM 5-HT. The standard reference agonist was 5-HT, which was tested in each experiment at several concentrations to generate a concentration-response curve from which its EC50 value is calculated as described above for dopamine functional assays.

[3] = various animal models relevant for Parkinson's Disease; cited from earlier work
[4] = human hepatocytes; cited from earlier work
[5] = rat hepatocytes; cited from earlier work
[6] = PD patients, intravenous (IV); cited from earlier work
[7] = man, oral dosing, extensive hepatic first-pass metabolism; cited from earlier work
[8] = Conversion of compounds in human plasma; format: in vitro ADME; settings: for Observed metabolite, incubation in human plasma: 1 μM test compound, 37° C., 0-6 hours
Procedure: Frozen human plasma was thawed and then centrifuged at 3200×g for 5 minutes to remove debris. The pH value of the supernatant was then measured and adjusted to 7.4±0.1 by adding 1% phosphoric acid or 1 N sodium hydroxide. 2 μL of dosing solution (50 μM for test compounds and 100 μM for positive control (propantheline bromide)) was mixed with 98 μL of blank plasma to achieve 1 μM test compound and 2 μM positive control of final concentration. The mixture was incubated, and samples were withdrawn from the incubations at the pre-determined time points of 0, 0.5, 1, 2, 4 and 6 hours (in duplicate) at 37° C. in water bath. At each corresponding time point 10 μL inhibitor and 20 μL ascorbic acid and 2 μL formic acid (20%) are added, and then added 400 μL of “stop solution” (200 ng/mL tolbutamide plus 200 ng/mL labetalol in 50% ACN/MeOH) to precipitate protein. The substance was mixed thoroughly and thereafter centrifugated at 4,000 rpm for 20 minutes. Then an aliquot of supernatant (50 μL) was transferred from each well to a sample plate and mixed with 100 μL ultrapure water. The plate was shaked at 800 rpm for about 10 minutes before submitting to LC-MS/MS analysis.
Instrumentation used for analysis of plasma and hepatocyte incubation samples:
Mass spectrometer (LC-MS/MS) Shimadzu LC 20-AD Shimadzu UHPLC API 4000. Analytical column ACQUITY UPLC® BEH Phenyl 1.7 μm 2.1×50 mm. Mobile phase A: 0.1% Formic Acid in water. Mobile phase B: 0.1% formic acid in acetonitrile. […] Flow rate 0.7 mL/min.

[9] = Conversion of compounds in human hepatocytes; format: in vitro ADME; settings: 1 μM compound, 37° C.
Procedure: Incubations were conducted in 96-well plates at 1 μM compound concentration in duplicate. The hepatocyte cell concentration was 0.5×10^6 cells/mL used for final incubation at 37° C. in an incubator of 5% CO2 95% relative humidity. The medium control samples were included at 0 and 60 minutes in the absence of cells. The total organic concentration was 1% (DMSO 0.1%) in the final incubation. The controls, (7-ethoxycoumarin and 7-hydroxycoumarin) was incubated parallel at […]. 2 μL of dosing solution (50 μM for test compounds and 100 μM for positive control) was mixed with 98 μL of 100 mM PBS to achieve 1 μM test compound and 2 μM positive control of final concentration. The mixture was incubated, and samples were withdrawn from the incubations at pre-determined time points of 0, 0.5, 1, 2, 4 and 6 hours (in duplicate) at 37° C. in water bath. To each sample, 10 μL inhibitor and 20 μL ascorbic acid and 2 μL formic acid (20%) were added followed by 400 μL of stop solution (200 ng/mL tolbutamide plus 200 ng/mL labetalol in 50% ACN/MeOH). The substance was mixed thoroughly and thereafter centrifuged at 4,000 rpm for 20 minutes. An aliquot of supernatant (50 μL) from each well were transferred to a sample plate and mixed with 100 μL ultrapure water. The plate was shaked at 800 rpm for about 10 minutes before submitting to LC-MS/MS analysis. […]

[10] = rats; cited from earlier work; remark: listed apart in the source
[11] = percent of the control response to 1 μM 5-HT

T1 sequence (P41595 whole entry): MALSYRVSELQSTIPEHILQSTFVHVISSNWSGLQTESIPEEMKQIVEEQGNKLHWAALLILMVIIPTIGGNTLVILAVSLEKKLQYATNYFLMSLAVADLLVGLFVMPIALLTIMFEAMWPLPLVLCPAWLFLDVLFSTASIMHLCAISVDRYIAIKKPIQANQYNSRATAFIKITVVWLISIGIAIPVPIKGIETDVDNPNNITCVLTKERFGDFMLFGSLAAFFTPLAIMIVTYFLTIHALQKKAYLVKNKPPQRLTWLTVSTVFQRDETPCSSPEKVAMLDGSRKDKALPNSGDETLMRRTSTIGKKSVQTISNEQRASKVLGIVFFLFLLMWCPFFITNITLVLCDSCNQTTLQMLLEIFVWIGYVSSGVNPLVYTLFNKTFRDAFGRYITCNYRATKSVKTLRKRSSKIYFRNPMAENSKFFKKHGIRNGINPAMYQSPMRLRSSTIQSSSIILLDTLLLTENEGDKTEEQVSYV

| Compound | Plasma concentration profile of compound (I) after oral dosing, in words [2] | In vivo pharmacology, efficacy [3] | 5-HT2B % effect @ 10 μM (human 5-HT2B receptor; [11]) [% @ 10 μM] | Observed metabolite, in vivo PK study after oral dosing (rats) [2] | Observed metabolite, incubation in human plasma [8] | further results |
| --- | --- | --- | --- | --- | --- | --- |
| CCCN1CCC[C@@H]2CC3=C(CCCC3=O)C[C@H]21 [(Ia), reference compound] | early and high peak plasma concentrations of compound (I) | effective | – | – | – | Conversion to the active compound (I) [1]: converted to the active compound (I); 5-HT2B % effect @ 30 μM (human 5-HT2B receptor; 30 μM, percent of the control response to 1 μM 5-HT): 58% |
| CCCN1CCC[C@@H]2Cc3c(ccc4c3OCO4)C[C@H]21 [(Ib), (6aR,10aR)-7-propyl-6,6a,7,8,9,10,10a,11-octahydro-[1,3]dioxolo[4′,5′:5,6]benzo[1,2-g]quinoline] | early and high peak plasma concentrations of compound (I) | effective | – | – | – | Conversion to compound (I) [4]: demonstrated; Conversion to compound (I) [5]: demonstrated; 5-HT2B receptor agonism, in words (human 5-HT2B receptor): agonist of the 5-HT2B receptor |
| CCCN1CCC[C@@H]2Cc3c(ccc(OC(=O)C(C)(C)C)c3OC(=O)C(C)(C)C)C[C@H]21 [(Ic), reference compound] | extremely low | – | −5 | – | – | – |
| CCCc1cc2c(s1)CN[C@@H]1CCc3cc(OC(C)=O)c(OC(C)=O)cc3[C@@H]21 [Adrogolide] | – | – | – | – | – | Antiparkinson efficacy [6]: comparable to that of L-DOPA; Oral bioavailability [7]: ~4% |
| CCCN1CCC[C@@H]2Cc3c(ccc(OCc4ccccc4)c3O)C[C@H]21 [Compound (2), (4aR,10aR)-7-(benzyloxy)-1-propyl-1,2,3,4,4a,5,10,10a-octahydrobenzo[g]quinolin-6-ol] | – | – | 30 | Compound (1) | Compound (1) | Observed metabolite, incubation in human hepatocytes [9]: Compound (1) |
| CCCN1CCC[C@@H]2Cc3c(ccc(OC)c3O)C[C@H]21 [Compound (3), (4aR,10aR)-7-methoxy-1-propyl-1,2,3,4,4a,5,10,10a-octahydrobenzo[g]quinolin-6-ol] | – | – | 27 | Compound (1) | – | Observed metabolite, incubation in human hepatocytes [9]: Compound (1) |
| CCCN1CCC[C@@H]2Cc3c(ccc(OP(=O)(O)O)c3OP(=O)(O)O)C[C@H]21 [Compound (6), (4aR,10aR)-1-propyl-1,2,3,4,4a,5,10,10a-octahydrobenzo[g]quinoline-6,7-diyl bis(dihydrogen phosphate)] | – | – | 4 | – | Compound (8) | Observed metabolite, incubation in human plasma ([8]; listed as compound (6)): compound (8) was formed; Appearance of compound (I) in incubation ([8]; human plasma, in words): no appearance of compound (I) was observed |
| CCCN1CCC[C@@H]2Cc3c(ccc(O)c3OP(=O)(O)O)C[C@H]21 [Compound (8), (4aR,10aR)-7-hydroxy-1-propyl-1,2,3,4,4a,5,10,10a-octahydrobenzo[g]quinolin-6-yl dihydrogen phosphate] | – | – | – | Compound (1) | Compound (1) | 5-HT2B % effect @ 1 μM (human 5-HT2B receptor; 1 μM, percent of the control response to 1 μM 5-HT): 0% @ 1 μM |
| CCC[N@+]1(COP(=O)([O-])O)CCC[C@@H]2Cc3c(ccc(O)c3O)C[C@H]21 [Compound (9), ((1S,4aR,10aR)-6,7-dihydroxy-1-propyl-1,2,3,4,4a,5,10,10a-octahydrobenzo[g]quinolin-1-ium-1-yl)methyl hydrogen phosphate] | – | – | −1 | Compound (1) | Compound (1) | – |
| CCCN1CCC[C@@H]2Cc3c(ccc(O)c3O)C[C@H]21 [compound (I), (4aR,10aR)-1-n-Propyl-1,2,3,4,4a,5,10,10a-octahydro-benzo[g]quinoline-6,7-diol] | – | effective | – | – | – | Half-life in the plasma assay ([8]; human plasma, in words): short half-life; Oral bioavailability, in words [10]: low oral bioavailability |
